From ChEMBL document CHEMBL4304803, “C-terminal modulators of heat shock protein of 90 kDa (HSP90): State of development and modes of action” (Bioorg Med Chem, 2019)

Target: Heat shock protein HSP90 (Homo sapiens, UniProt P07900+P08238)
Experiment: Binding affinity to HSP90 CTD (unknown origin) by circular dichroism spectroscopy
Format: protein assay

Work on `CC[C@H](C)[C@@H](ONC(=O)[C@H](ONC(=O)[C@@H](Cc1ccccc1)ONC(=O)[C@@H](Cc1ccccc1)ONC(=O)OCc1ccccc1)[C@@H](C)CC)C(=O)NO[C@H](CC(C)C)C(=O)NO[C@H](CC(C)C)C(N)=O` yielded a Kd of 27.4 µM.
